In patent publication US20250333394A1, “Tiparp Inhibitor Compounds” (AbbVie Inc., priority 2024, published 2025):
pEC50, pIC50: −log10 of the molar value. Where two headings read alike, the source gives them in different places.

Tests used:
[1] = target: TIPARP GST-(TEV) (Homo sapiens (Human), UniProt Q7Z3E1); experiment: TR-FRET binding assay, TIPARP; settings: for pIC50: TR-FRET, Probe 1, 2 hours incubation; for PARP1/TIPARP IC50 Ratio: ratio of PARP1 GST IC50 to TIPARP GST-(TEV) IC50
Excerpt: The full-length cDNA encoding the human TIPARP (NP_001171647.1, UniProtKB-Q7Z3E1) of 657 amino acids was the template to generate the expression construct. […] The TIPARP fusion protein includes GST, glutathione S-transferase, a 26 kDa protein whose DNA sequence is frequently integrated into expression vectors for production of recombinant proteins. A […], was cloned into vector pFastBacTM 1 (Thermo Fisher Scientific) with an N-terminal GST tag followed by a TEV protease site to produce the TIPARP fusion protein, TIPARP GST-(TEV). TR-FRET assays were used to measure the binding of compounds to TIPARP and PARP1, and to characterize biochemical selectivity. Compound stock solutions (10 mM) were serially diluted in 3-fold increments in dimethyl sulfoxide (DMSO). Diluted compounds were dispensed (30 nL) into white ProxiPlate-384-well plates (PerkinElmer, Waltham, MA, USA) using an ECHO® 550 acoustic Labcyte dispenser (Beckman-Coulter Life Sciences, Indianapolis, IN, USA) to achieve a final starting concentration of 30 μM to 0.5 nM in the assay. This was followed by addition of 5 μL of 2× protein/probe mix (Table 2) made in assay buffer (Tris-HCl 50 mM pH 8.0; 5 mM MgCl2; 5 μM ZnCl2; 1 mM DTT (dithiothreitol); 0.15% BSA (bovine serum albumin) (w/v); and 0.01% TritonX-100 (w/v)) at final concentrations listed in Table 2. Subsequently, 5 μL of 2× antibody (Tb-labeled anti-GST antibody, Thermo Fisher Scientific, Waltham, MA, USA) in HEPES buffered saline was added to each well at a final concentration of 1 nM. The samples were then incubated for 2 hours under ambient conditions. Fluorescence was measured and TR-FR ET ratios were determined on an EnVision multimode plate reader (PerkinElmer) using a 520 nanometer (nm) excitation wavelength and collecting fluorescence emission at 495 nm. […] [table]

[2] = target: PARP1 GST (Homo sapiens (Human), UniProt P09874); experiment: TR-FRET binding assay, PARP1; settings: Probe 2, 2 hours incubation
Experimental: TR-FRET assays were used to measure the binding of compounds to TIPARP and PARP1, and to characterize biochemical selectivity. Compound stock solutions (10 mM) were serially diluted in 3-fold increments in dimethyl sulfoxide (DMSO). Diluted compounds were dispensed (30 nL) into white ProxiPlate-384-well plates (PerkinElmer, Waltham, MA, USA) using an ECHO® 550 acoustic Labcyte dispenser (Beckman-Coulter Life Sciences, Indianapolis, IN, USA) to achieve a final starting concentration of 30 μM to 0.5 nM in the assay. This was followed by addition of 5 μL of 2× protein/probe mix (Table 2) made in assay buffer (Tris-HCl 50 mM pH 8.0; 5 mM MgCl2; 5 μM ZnCl2; 1 mM DTT (dithiothreitol); 0.15% BSA (bovine serum albumin) (w/v); and 0.01% TritonX-100 (w/v)) at final concentrations listed in Table 2. Subsequently, 5 μL of 2× antibody (Tb-labeled anti-GST antibody, Thermo Fisher Scientific, Waltham, MA, USA) in HEPES buffered saline was added to each well at a final concentration of 1 nM. The samples were then incubated for 2 hours under ambient conditions. Fluorescence was measured and TR-FR ET ratios were determined on an EnVision multimode plate reader (PerkinElmer) using a 520 nanometer (nm) excitation wavelength and collecting fluorescence emission at 495 nm.

[3] = system: NCI-H1373 cells; experiment: NCI-H1373 CellTiter-Glo cell assay for TIPARP inhibition; type: cell-based, human; settings: 6 days, 100 nM 10-Cl-BBQ in medium, read-out: NCI-H1373 CTG EC50
Experimental: The NCI-H1373 CellTiter-Glo® assay was used to determine cell numbers after TIPARP inhibition-induced cell cycle arrest, and enabled screening of compounds for cellular TIPARP inhibition potency.
Compound stock solutions (10 mM) were serially diluted in 3-fold increments in dimethyl sulfoxide. Sample aliquots (120 nL) were dispensed into Corning® 384-well Flat Clear Bottom White Polystyrene TC-treated Microplates (Corning Life Sciences, Corning, NY, USA) using an ECHO® 550 acoustic Labcyte dispenser (Beckman-Coulter Life Sciences, Indianapolis, IN, USA) to achieve final concentrations between 30 μM and 0.5 nM in the assay. This was followed by the addition of 40 μL of 1000 NCI-H1373 cells (ATCC®, Manassas, VA, USA) in complete growth medium RPMI 1640 growth medium (Thermo Fisher Scientific, Waltham, MA, USA) supplemented with 20 mg/L L-glutamate, 25 mM HEPES (4-(2-hydroxyethyl)-1-piperazineethanesulfonic acid), 10% (v/v) heat inactivated FBS (fetal bovine serum), 1% (w/v) penicillin-streptomycin, and 100 nM 10-Cl-BBQ (10-chloro-7H-benzimidazo[2,1-a]benz[de]isoquinolin-7-one, (Tocris, Minneapolis, MN, USA). Duplicate cell plates with 40 μL cells/well along with various concentrations of compounds were kept in Nunc™ Square BioAssay Dishes (Thermo Fisher Scientific) at 98% relative humidity in a 5% C02 incubator at 37° C. for 6 days. On day 7, plates were moved to ambient lab conditions for 10 minutes until the temperature equilibrated. Following equilibration, CellTiter-Glo® Luminescent Cell Viability Assay reagent (Promega™, Madison, WI, USA) was added (15 μL) to each well of the plates. After a 20 minutes incubation, luminescence was detected using a ViewLux™ microplate imager (PerkinElmer, Waltham, MA, USA). Data analysis was performed using GraphPad Prism (Dotmatics, Boston, MA, USA).

[4] = system: DLD-1 parent cells; experiment: CellTiter-Glo DLD-1 parent cell assay; type: cell-based; settings: 6 days, read-out: DLD-1 CTG EC50
Excerpt: (§1) The DLD-1 BRCA2 (−/−) CellTiter-Glo® assay measured the synthetic lethality of PARP1/2 inhibitors and was used as a surrogate to allow measurement of activity of both PARP1 and PARP2 in cells. If PARP1 and PARP2 are inhibited and are trapped onto chromatin during DNA replication, there is replication fork stalling and accumulation of double strand breaks. In BR CA wild-type cells, the resulting double strand DNA breaks are repaired via homologous recombination. In cells with mutation of BRCA1 or BRCA2, homologous recombination repair of DNA double strand breaks is defective, and cell death occurs after PARP1/2 inhibitor treatment (Lord C J, Ashworth A. PARP inhibitors: synthetic lethality in the clinic. Science. 2017 Mar. 17; 355(6330):1152-1158). Testing compounds in viability assays with the DLD-1-BR CA 2 (−/−) and DLD-1 parent cell enabled assessment on PARP1/2-dependent (cytotoxicity in the BRCA2 (−/−) cells only) vs. non-selective cytotoxicity in both cell lines.
(§2) Compound stock solutions (10 mM) were serially diluted in 3-fold increments in dimethyl sulfoxide (DMSO). Sample aliquots (120 nL) were dispensed into Corning® 384-well Flat Clear Bottom White Polystyrene TC-treated Microplates (Corning Life Sciences, Corning, NY, USA) using an ECHO® 550 acoustic Labcyte dispenser (Beckman-Coulter Life Sciences, Indianapolis, IN, USA) to achieve concentrations between 30 μM and 0.5 nM in the assay. In the assay, 40 μL of 500 DLD-1 parent cells (HORIZON® Therapeutics, Deerfield, IL, USA) or 40 μL of 1200 DLD-1-BRCA2 (−/−) cells (HORIZON Therapeutics) in complete growth medium containing RPMI 1640 growth medium (ThermoFisher Scientific, Waltham, MA, USA) supplemented with 20 mg/L L-glutamate, 25 mM HEPES (4-(2-hydroxyethyl)-1-piperazineethanesulfonic acid), 10% (v/v) heat inactivated FBS (fetal bovine serum), and 1% (w/v) Penicillin-Streptomycin were added.
(§3) Duplicate cell plates with 40 μL cells/well along with various concentrations of compounds were kept in Nunc™ Square BioAssay Dishes (Thermo Fisher Scientific) at 98% relative humidity in a 5% CO2 incubator at 37° C. for 6 days. On day 7, plates were moved to ambient lab conditions for 10 minutes until the temperature equilibrated. Following equilibration, CellTiter-Glo® Luminescent Cell Viability Assay reagent (Promega™, Madison, WI, USA) was added (15 μL) to each well of the plates. After a 20 minutes incubation, luminescence was detected using a ViewLux™ microplate imager (PerkinElmer, Waltham, MA, USA). Data analysis was performed using GraphPad Prism (Dotmatics, Boston, MA, USA).

[5] = system: DLD-1 BRCA2 (−/−) cells; experiment: CellTiter-Glo DLD-1 BRCA2 (−/−) cell assay for PARP1/2 inhibition; type: cell-based; settings: 6 days, read-out: DLD-1 BRCA2 (−/−) CTG EC50
Excerpt: as §1, §2, §3

TIPARP GST-(TEV), sequence (Q7Z3E1 441-657): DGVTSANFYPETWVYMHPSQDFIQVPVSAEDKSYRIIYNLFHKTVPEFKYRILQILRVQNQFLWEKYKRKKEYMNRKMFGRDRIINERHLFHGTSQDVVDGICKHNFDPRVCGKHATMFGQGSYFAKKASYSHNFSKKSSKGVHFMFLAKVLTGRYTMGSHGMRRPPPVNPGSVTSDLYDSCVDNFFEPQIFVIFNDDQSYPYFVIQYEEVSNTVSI
PARP1 GST, sequence (P09874 whole entry): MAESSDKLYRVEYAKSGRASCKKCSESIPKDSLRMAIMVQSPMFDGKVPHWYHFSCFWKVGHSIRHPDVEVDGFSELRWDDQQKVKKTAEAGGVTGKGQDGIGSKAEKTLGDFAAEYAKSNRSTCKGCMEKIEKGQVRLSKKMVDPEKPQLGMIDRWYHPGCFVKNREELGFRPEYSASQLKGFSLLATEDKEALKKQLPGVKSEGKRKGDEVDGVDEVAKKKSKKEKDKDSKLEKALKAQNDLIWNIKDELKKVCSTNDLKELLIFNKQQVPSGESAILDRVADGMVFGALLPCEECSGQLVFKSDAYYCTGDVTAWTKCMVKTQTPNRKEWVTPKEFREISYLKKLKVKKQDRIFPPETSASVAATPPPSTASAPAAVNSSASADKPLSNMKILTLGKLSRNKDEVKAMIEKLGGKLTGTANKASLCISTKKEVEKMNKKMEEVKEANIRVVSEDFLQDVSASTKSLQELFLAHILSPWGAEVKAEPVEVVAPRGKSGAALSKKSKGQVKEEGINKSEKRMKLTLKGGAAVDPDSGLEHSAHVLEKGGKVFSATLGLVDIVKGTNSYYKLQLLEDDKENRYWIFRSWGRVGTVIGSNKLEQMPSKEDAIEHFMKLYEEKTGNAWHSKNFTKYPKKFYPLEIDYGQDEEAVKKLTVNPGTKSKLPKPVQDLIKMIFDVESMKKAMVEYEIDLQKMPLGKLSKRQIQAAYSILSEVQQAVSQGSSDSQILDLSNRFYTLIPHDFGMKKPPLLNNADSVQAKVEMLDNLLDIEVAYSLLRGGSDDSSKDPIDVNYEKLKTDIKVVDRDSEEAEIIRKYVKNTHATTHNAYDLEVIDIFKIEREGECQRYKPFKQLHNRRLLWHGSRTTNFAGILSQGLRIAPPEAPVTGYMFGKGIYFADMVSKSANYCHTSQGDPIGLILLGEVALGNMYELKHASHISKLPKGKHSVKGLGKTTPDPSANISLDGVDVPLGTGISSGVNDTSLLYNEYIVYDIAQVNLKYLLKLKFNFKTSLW

Compound	pIC50 [1]	PARP1/TIPARP IC50 Ratio [1]	pIC50 [2]	pEC50 ([3]; Homo sapiens, NCI-H1373, 144 h)	pEC50 ([4]; Homo sapiens, 144 h)	pEC50 ([5]; Homo sapiens, 144 h)	pEC50 [3]	pEC50 [4]	pEC50 [5]
C[C@@H]1CN(C(=O)[C@H]2C[C@@H](c3c[nH]c(=O)c(C(F)(F)F)c3)C2)C[C@H](C)N1c1ncc(C(C)(C)O)cn1 [Example 5, 5-[(1s,3s)-3-{(3R,5S)-4-[5-(2-hydroxypropan-2-yl)pyrimidin-2-yl]-3,5-dimethylpiperazine-1-carbonyl}cyclobutyl]-3-(trifluoromethyl)pyridin-2(1H)-one]	8.64	974	5.65	7.46	< 4.52	4.69	–	–	–
C[C@@H]1CN(C(=O)[C@H]2C[C@@H](Cc3c[nH]c(=O)c(C(F)(F)F)c3)C2)C[C@H](C)N1c1ncc(C(C)(C)O)cn1 [Example 22, 5-{[(1s,3s)-3-{(3R,5S)-4-[5-(2-hydroxypropan-2-yl)pyrimidin-2-yl]-3,5-dimethylpiperazine-1-carbonyl}cyclobutyl]methyl}-3-(trifluoromethyl)pyridin-2(1H)-one]	8.55	975	5.56	7.57	< 4.52	5.04	–	–	–
CC(C)(O)c1cnc(N2CCN(C(=O)[C@H]3C[C@@H](c4c[nH]c(=O)c(C(F)(F)F)c4)C3)CC2)nc1 [Example 28, 5-[(1s,3s)-3-{4-[5-(2-hydroxypropan-2-yl)pyrimidin-2-yl]piperazine-1-carbonyl}cyclobutyl]-3-(trifluoromethyl)pyridin-2(1H)-one]	8.24	89.1	6.29	–	–	–	6.76	< 4.52	5.26
C[C@@H]1CN(C(=O)[C@H]2C[C@H](c3c[nH]c(=O)c(C(F)(F)F)c3)C2)C[C@H](C)N1c1ncc(C(F)(F)F)cn1 [Example 24, 5-[(1r,3r)-3-{(3R,5S)-3,5-dimethyl-4-[5-(trifluoromethyl)pyrimidin-2-yl]piperazine-1-carbonyl}cyclobutyl]-3-(trifluoromethyl)pyridin-2(1H)-one]	5.73	1.65	5.51	–	–	–	5.19	< 4.52	4.63
CC(C)(O)c1cnc(N2CCN(C(=O)[C@H]3C[C@@H](Cc4c[nH]c(=O)c(C(F)(F)F)c4)C3)CC2)nc1 [Example 27, 5-{[(1s,3s)-3-{4-[5-(2-hydroxypropan-2-yl)pyrimidin-2-yl]piperazine-1-carbonyl}cyclobutyl]methyl}-3-(trifluoromethyl)pyridin-2(1H)-one]	8.63	98.7	6.64	–	–	–	7.41	< 4.52	6.05
C[C@@H]1CN(c2ncc(C(C)(C)O)cn2)CCN1C(=O)[C@H]1C[C@@H](Cc2c[nH]c(=O)c(C(F)(F)F)c2)C1 [Example 19, 5-{[(1S,3s)-3-{(2R)-4-[5-(2-hydroxypropan-2-yl)pyrimidin-2-yl]-2-methylpiperazine-1-carbonyl}cyclobutyl]methyl}-3-(trifluoromethyl)pyridin-2(1H)-one]	8.24	1170	5.17	7.15	< 4.52	4.74	–	–	–
C[C@H]1CN(c2ncc(C(C)(C)O)cn2)CCN1C(=O)[C@H]1C[C@@H](c2c[nH]c(=O)c(C(F)(F)F)c2)C1 [Example 11, 5-[(1R,3s)-3-{(2S)-4-[5-(2-hydroxypropan-2-yl)pyrimidin-2-yl]-2-methylpiperazine-1-carbonyl}cyclobutyl]-3-(trifluoromethyl)pyridin-2(1H)-one]	7.96	56.5	6.21	6.47	4.80	5.93	–	–	–
